Test results reported in the supplement of paper PMC10307832.

Experiments:
Assay in all cases: relative viability (nuclei count vs DMSO), 5 days (fraction); higher = more cells survive
Everolimus + Linsitinib = compound: CO[C@H]1C[C@@H]2CC[C@@H](C)[C@@](O)(O2)C(=O)C(=O)N2CCCC[C@H]2C(=O)O[C@H]([C@H](C)C[C@@H]2CC[C@@H](OCCO)[C@H](OC)C2)CC(=O)[C@H](C)/C=C(\C)[C@@H](O)[C@@H](OC)C(=O)[C@H](C)C[C@H](C)/C=C/C=C/C=C/1C [Everolimus] + C[C@]1(O)C[C@@H](c2nc(-c3ccc4ccc(-c5ccccc5)nc4c3)c3c(N)nccn32)C1 [Linsitinib] (partner 1 µM)
In short: (§1)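 Cells from lung cancer lines were seeded into 1536-well plates and, one day later, dosed by pin tool. Treatments were either a single drug or a fixed dose of an anchor drug with five library-drug doses (not always all listed) in √10 steps. After 5 days, nuclei were stained in a one-step fixation (final 0.05% Triton X-100, 1% formaldehyde, 1 ug/ml Hoechst) and counted on 4× images, and relative viability is the treated-to-vehicle nuclei ratio, as the median of duplicate plates.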

Everolimus + Pemetrexed = compound: CO[C@H]1C[C@@H]2CC[C@@H](C)[C@@](O)(O2)C(=O)C(=O)N2CCCC[C@H]2C(=O)O[C@H]([C@H](C)C[C@@H]2CC[C@@H](OCCO)[C@H](OC)C2)CC(=O)[C@H](C)/C=C(\C)[C@@H](O)[C@@H](OC)C(=O)[C@H](C)C[C@H](C)/C=C/C=C/C=C/1C [Everolimus] + Nc1nc2[nH]cc(CCc3ccc(C(=O)N[C@@H](CCC(=O)O)C(=O)O)cc3)c2c(=O)[nH]1 [Pemetrexed] (partner 0.2 µM)
In short: as §1

Everolimus + Vorinostat = compound: CO[C@H]1C[C@@H]2CC[C@@H](C)[C@@](O)(O2)C(=O)C(=O)N2CCCC[C@H]2C(=O)O[C@H]([C@H](C)C[C@@H]2CC[C@@H](OCCO)[C@H](OC)C2)CC(=O)[C@H](C)/C=C(\C)[C@@H](O)[C@@H](OC)C(=O)[C@H](C)C[C@H](C)/C=C/C=C/C=C/1C [Everolimus] + O=C(CCCCCCC(=O)Nc1ccccc1)NO [Vorinostat] (partner 1 µM)
In short: as §1

Everolimus + Olaparib = compound: CO[C@H]1C[C@@H]2CC[C@@H](C)[C@@](O)(O2)C(=O)C(=O)N2CCCC[C@H]2C(=O)O[C@H]([C@H](C)C[C@@H]2CC[C@@H](OCCO)[C@H](OC)C2)CC(=O)[C@H](C)/C=C(\C)[C@@H](O)[C@@H](OC)C(=O)[C@H](C)C[C@H](C)/C=C/C=C/C=C/1C [Everolimus] + O=C(c1cc(Cc2n[nH]c(=O)c3ccccc23)ccc1F)N1CCN(C(=O)C2CC2)CC1 [Olaparib] (partner 8 µM)
In short: as §1

Cell Line	relative viability (Everolimus + Linsitinib; first compound 0.01 µM)	relative viability (Everolimus + Linsitinib; first compound 0.03162 µM)	relative viability (Everolimus + Linsitinib; first compound 0.1 µM)	relative viability (Everolimus + Linsitinib; first compound 0.3162 µM)	relative viability (Everolimus + Linsitinib; first compound 1 µM)	relative viability (Everolimus + Pemetrexed; first compound 0.01 µM)	relative viability (Everolimus + Pemetrexed; first compound 0.03162 µM)	relative viability (Everolimus + Pemetrexed; first compound 0.1 µM)	relative viability (Everolimus + Pemetrexed; first compound 0.3162 µM)	relative viability (Everolimus + Pemetrexed; first compound 1 µM)	relative viability (Everolimus + Vorinostat; first compound 0.01 µM)	relative viability (Everolimus + Vorinostat; first compound 0.03162 µM)	relative viability (Everolimus + Vorinostat; first compound 0.1 µM)	relative viability (Everolimus + Vorinostat; first compound 0.3162 µM)	relative viability (Everolimus + Vorinostat; first compound 1 µM)	relative viability (Everolimus + Olaparib; first compound 0.01 µM)	relative viability (Everolimus + Olaparib; first compound 0.03162 µM)	relative viability (Everolimus + Olaparib; first compound 0.1 µM)	relative viability (Everolimus + Olaparib; first compound 0.3162 µM)	relative viability (Everolimus + Olaparib; first compound 1 µM)
NCI-H596	0.653	0.651	0.53	0.532	0.515	0.454	0.46	0.471	0.433	0.443	0.505	0.741	0.414	0.421	0.419	0.642	0.475	0.618	0.515	0.506
NCI-H647	0.629	0.76	0.58	0.647	0.653	0.175	0.184	0.156	0.11	0.175	0.309	0.165	0.132	0.189	0.24	0.268	0.303	0.199	0.176	0.368
NCI-H650	0.53	–	0.506	0.512	0.557	0.645	0.606	0.626	0.516	0.591	0.324	0.212	0.293	0.212	0.254	0.397	0.37	0.373	0.284	0.307
NCI-H661	0.473	0.575	0.361	0.319	0.306	0.805	0.763	0.863	0.793	0.664	0.607	0.687	0.671	0.678	0.555	0.672	0.64	0.576	0.593	0.491
NCI-H838	0.329	0.372	0.303	0.326	0.318	0.229	0.213	0.241	0.228	0.222	0.541	0.539	0.554	0.573	0.471	0.493	0.484	0.494	0.479	0.403
NCI-H1355	0.412	0.322	0.348	0.349	0.336	0.747	0.553	0.521	0.502	0.486	0.385	0.331	0.341	0.365	0.295	0.486	0.514	0.426	0.536	0.48
NCI-H1395	1	0.864	0.766	0.731	0.787	0.595	0.571	0.693	0.693	0.7	0.549	0.33	0.505	0.478	0.58	0.405	0.423	0.377	0.401	0.379
NCI-H1437	0.589	0.598	0.493	0.36	0.279	0.296	0.307	0.294	0.29	0.251	0.747	0.632	0.656	0.586	0.432	0.632	0.622	0.588	0.596	0.598
NCI-H1651	0.586	0.538	0.495	0.495	0.454	0.398	0.386	0.423	0.41	0.433	0.424	0.418	0.36	0.449	0.405	0.185	0.201	0.254	0.229	0.211
NCI-H1666	0.644	0.407	0.468	0.455	0.468	0.884	0.859	0.93	0.885	0.825	1.04	1.08	1.04	1.05	0.92	0.725	0.779	0.781	0.731	0.823
NCI-H1734	0.416	0.568	0.518	0.467	0.575	0.407	0.435	0.461	0.385	0.406	0.613	0.606	0.505	0.422	0.563	0.448	0.409	0.456	0.406	0.407
NCI-H1755	0.883	0.717	0.665	0.727	0.658	0.468	0.484	0.512	0.438	0.448	0.616	0.599	0.61	0.568	0.602	0.764	0.592	0.697	0.556	0.588
NCI-H1793	0.299	0.188	0.333	0.311	0.246	0.373	0.332	0.319	0.351	0.251	0.344	0.288	0.322	0.356	0.251	0.346	0.345	0.319	0.343	0.235
NCI-H1915	0.994	0.973	0.935	0.914	0.827	0.484	0.481	0.469	0.499	0.432	0.389	0.387	0.431	0.37	0.364	0.282	0.31	0.285	0.26	0.288
